One assay addresses human PDE1B enzyme (Homo sapiens (Human), UniProt Q01064). The assay is described as follows: IMAP TR-FRET PDE1B enzymatic assay. As to conditions: negative log of half-maximal molar inhibitory concentration; 200 nM FAM-cAMP; values given as bins. Type of assay: biochemical. The method, boiled down:
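Full-length GST-tagged human PDE1B (250 pg/well) in IMAP BSA buffer with 10 U/ml calmodulin and 2.5 mM CaCl2; compound pre-incubated 5 min at room temperature, then 200 nM (final) FAM-cAMP for 30 min. IMAP binding reagent/Tb added, 1 h; TR-FRET 520/490 ratio read. IC50 from sigmoidal dose-response fit.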
(In general: In TR-FRET formats the signal depends on donor and acceptor labels being close together.)
`Cc1oc2ncnc(NC3(C)CC3)c2c1C(=O)N1CCC(c2ccc(F)cc2)CC1` [Example 60, 5-[4-(4-Fluorophenyl)piperidine-1-carbonyl]-6-methyl-N-(1-methylcyclopropyl)furo[2,3-d]pyrimidin-4-amine]: the “PDE1b (pIC50)” value is given as more than 8. Regarding `Cc1oc2ncnc(NC3(C)CC3)c2c1C(=O)N1CCN(c2ccc(F)cc2)CC1` [Example 61, 5-[4-(4-Fluorophenyl)piperazine-1-carbonyl]-6-methyl-N-(1-methylcyclopropyl)furo[2,3-d]pyrimidin-4-amine], the “PDE1b (pIC50)” value is reported as more than 8.

`Cc1oc2ncnc(NC3(C)CC3)c2c1C(=O)N1CCC(F)(c2ccccn2)CC1` [Example 62, 5-[4-Fluoro-4-(pyridin-2-yl)piperidine-1-carbonyl]-6-methyl-N-(1-methylcyclopropyl)furo[2,3-d]pyrimidin-4-amine]: the “PDE1b (pIC50)” value is recorded as more than 8.

For the molecule `Cc1oc2ncnc(NC3(C)CC3)c2c1C(=O)N1CCC(O)(c2ccc(F)cc2)CC1` [Example 63, 4-(4-Fluorophenyl)-1-{6-methyl-4-[(1-methylcyclopropyl)amino]furo[2,3-d]pyrimidine-5-carbonyl}piperidin-4-ol], the “PDE1b (pIC50)” value is more than 8. On the same count and under the same terms, the same measure for `Cc1oc2ncnc(NC3(C)CC3)c2c1C(=O)NCc1cccc(C#N)c1` [Example 66, N-[(3-Cyanophenyl)methyl]-6-methyl-4-[(1-methylcyclopropyl)amino]furo[2,3-d]pyrimidine-5-carboxamide]: more than 8.

For the molecule `Cc1oc2ncnc(NC3(C)CC3)c2c1C(=O)N1CCC(O)(c2ccc(F)cc2)C1` (stereo not shown) [Example 67, 3-(4-Fluorophenyl)-1-{6-methyl-4-[(1-methylcyclopropyl)amino]furo[2,3-d]pyrimidine-5-carbonyl}pyrrolidin-3-ol], the “PDE1b (pIC50)” value is reported as more than 8. `Cc1oc2ncnc(NC3(C)CC3)c2c1C(=O)NC1(c2ccc(F)cc2)CC1` [Example 69, N-[1-(4-Fluorophenyl)cyclopropyl]-6-methyl-4-[(1-methylcyclopropyl)amino]furo[2,3-d]pyrimidine-5-carboxamide]: the “PDE1b (pIC50)” value is listed as more than 8. On the same count and under the same terms, the same measure for `Cc1oc2ncnc(NC3(C)CC3)c2c1C(=O)N1CCC(C)(c2ccc(F)cc2)C1` (stereo not shown) [Example 85, 5-[3-(4-Fluorophenyl)-3-methylpyrrolidine-1-carbonyl]-6-methyl-N-(1-methylcyclopropyl)furo[2,3-d]pyrimidin-4-amine]: more than 8; for `Cc1oc2ncnc(NC3(C)CC3)c2c1C(=O)NCc1ccc(F)c(C#N)c1` [Example 88, N-[(3-Cyano-4-fluorophenyl)methyl]-6-methyl-4-[(1-methylcyclopropyl)amino]furo[2,3-d]pyrimidine-5-carboxamide]: more than 8.

The same assay, now with this note: negative log of half-maximal molar inhibitory concentration; 200 nM FAM-cAMP; values given as bins; read-out: PDE1b (pIC50) (converted).
Turning to `Cc1oc2ncnc(NC3(C)CC3)c2c1C(=O)N1CCN(c2ccc(F)c(F)c2)C(=O)C1` [Example 64, 1-(3,4-Difluorophenyl)-4-{6-methyl-4-[(1-methylcyclopropyl)amino]furo[2,3-d]pyrimidine-5-carbonyl}piperazin-2-one], the IC50 was 10 to 100 nM. The same measure, in the same setting: the figure for `Cc1oc2ncnc(NC3(C)CC3)c2c1C(=O)N1C[C@@H]2[C@H](C1)[C@H]2c1ccc(C(F)(F)F)cn1` [Example 65, 6-Methyl-N-(1-methylcyclopropyl)-5-[(1R,5S,6S)-6-[5-(trifluoromethyl)pyridin-2-yl]-3-azabicyclo[3.1.0]hexane-3-carbonyl]furo[2,3-d]pyrimidin-4-amine] is 100 to 1000 nM.

Take `Cc1oc2ncnc(NC3(C)CC3)c2c1C(=O)NC(C)c1ccc(F)cc1` (stereo not shown) [Example 68, N-[1-(4-Fluorophenyl)ethyl]-6-methyl-4-[(1-methylcyclopropyl)amino]furo[2,3-d]pyrimidine-5-carboxamide]: the IC50 was 10 to 100 nM. On to `Cc1oc2ncnc(NC3(C)CC3)c2c1C(=O)N1CCC(c2ccccn2)C1` (stereo not shown) [Example 70, 6-Methyl-N-(1-methylcyclopropyl)-5-[3-(pyridin-2-yl)pyrrolidine-1-carbonyl]furo[2,3-d]pyrimidin-4-amine], for which the IC50 is 10 to 100 nM.

For `Cc1oc2ncnc(NC3(C)CC3)c2c1C(=O)N1CCC(c2cccnc2)C1` (stereo not shown) [Example 71, 6-Methyl-N-(1-methylcyclopropyl)-5-[3-(pyridin-3-yl)pyrrolidine-1-carbonyl]furo[2,3-d]pyrimidin-4-amine], the IC50 is 10 to 100 nM. On to `Cc1oc2ncnc(NC3(C)CC3)c2c1C(=O)N1CCC(c2ccncc2)C1` (stereo not shown) [Example 72, 6-Methyl-N-(1-methylcyclopropyl)-5-[3-(pyridin-4-yl)pyrrolidine-1-carbonyl]furo[2,3-d]pyrimidin-4-amine], for which the IC50 is 10 to 100 nM. Regarding `Cc1oc2ncnc(NC3(C)CC3)c2c1C(=O)NCc1nccs1` [Example 73, 6-Methyl-4-[(1-methylcyclopropyl)amino]-N-(1,3-thiazol-2-ylmethyl)furo[2,3-d]pyrimidine-5-carboxamide], the IC50 was 10 to 100 nM. In the case of `Cc1oc2ncnc(NC3(C)CC3)c2c1C(=O)NCc1cncs1` [Example 74, 6-Methyl-4-[(1-methylcyclopropyl)amino]-N-(1,3-thiazol-5-ylmethyl)furo[2,3-d]pyrimidine-5-carboxamide], the IC50 was 10 to 100 nM. `Cc1oc2ncnc(NC3(C)CC3)c2c1C(=O)NCc1cscn1` [Example 75, 6-Methyl-4-[(1-methylcyclopropyl)amino]-N-(1,3-thiazol-4-ylmethyl)furo[2,3-d]pyrimidine-5-carboxamide]: the IC50 was 10 to 100 nM.

With `Cc1oc2ncnc(NC3(C)CC3)c2c1C(=O)NCc1ccccn1` [Example 76, 6-Methyl-4-[(1-methylcyclopropyl)amino]-N-(pyridin-2-ylmethyl)furo[2,3-d]pyrimidine-5-carboxamide], the IC50 is 10 to 100 nM. As for `Cc1oc2ncnc(NC3(C)CC3)c2c1C(=O)NC(C)c1ccccn1` (stereo not shown) [Example 77, 6-Methyl-4-[(1-methylcyclopropyl)amino]-N-[1-(pyridin-2-yl)ethyl]furo[2,3-d]pyrimidine-5-carboxamide], the IC50 was 10 to 100 nM. Same read-out and setting: the figure for `Cc1oc2ncnc(NC3(C)CC3)c2c1C(=O)NC(C)(C)c1ccccn1` [Example 78, 6-Methyl-4-[(1-methylcyclopropyl)amino]-N-[2-(pyridin-2-yl)propan-2-yl]furo[2,3-d]pyrimidine-5-carboxamide] is 10 to 100 nM; for `Cc1oc2ncnc(NC3(C)CC3)c2c1C(=O)NC1(c2ccccn2)CC1` [Example 79, 6-Methyl-4-[(1-methylcyclopropyl)amino]-N-[1-(pyridin-2-yl)cyclopropyl]furo[2,3-d]pyrimidine-5-carboxamide] it is 10 to 100 nM. On the same count and under the same terms, the figure for `CNC(=O)c1c(C)oc2ncnc(NC3(C)CC3)c12` [Example 80, N,6-Dimethyl-4-[(1-methylcyclopropyl)amino]furo[2,3-d]pyrimidine-5-carboxamide] is 100 to 1000 nM; for `Cc1oc2ncnc(NC3(C)CC3)c2c1C(=O)N(C)C` [Example 81, N,N,6-Trimethyl-4-[(1-methylcyclopropyl)amino]furo[2,3-d]pyrimidine-5-carboxamide] it is 100 to 1000 nM. The same measure, in the same setting: the figure for `CCNC(=O)c1c(C)oc2ncnc(NC3(C)CC3)c12` [Example 82, N-Ethyl-6-methyl-4-[(1-methylcyclopropyl)amino]furo[2,3-d]pyrimidine-5-carboxamide] is 10 to 100 nM.

Consider `Cc1oc2ncnc(NC3(C)CC3)c2c1C(=O)NC1COC1` [Example 83, 6-Methyl-4-[(1-methylcyclopropyl)amino]-N-(oxetan-3-yl)furo[2,3-d]pyrimidine-5-carboxamide], for which the IC50 was 100 to 1000 nM.

For the molecule `Cc1oc2ncnc(NC3(C)CC3)c2c1C(=O)NC1(C(F)(F)F)CC1` [Example 86, 6-Methyl-4-[(1-methylcyclopropyl)amino]-N-[1-(trifluoromethyl)cyclopropyl]furo[2,3-d]pyrimidine-5-carboxamide], the IC50 is 10 to 100 nM. The same measure, in the same setting: the same measure for `Cc1oc2ncnc(NC3(C)CC3)c2c1C(=O)NCc1ccc(C#N)c(F)c1` [Example 87, N-[(4-Cyano-3-fluorophenyl)methyl]-6-methyl-4-[(1-methylcyclopropyl)amino]furo[2,3-d]pyrimidine-5-carboxamide]: 10 to 100 nM. For the molecule `Cc1oc2ncnc(NC3(C)CC3)c2c1C(=O)NC1(C)CC1` [Example 89, 6-Methyl-N-(1-methylcyclopropyl)-4-[(1-methylcyclopropyl)amino]furo[2,3-d]pyrimidine-5-carboxamide], the IC50 is 10 to 100 nM. In the case of `Cc1oc2ncnc(NC3(C)CC3)c2c1C(=O)NCC1COC1` [Example 90, 6-Methyl-4-[(1-methylcyclopropyl)amino]-N-(oxetan-3-ylmethyl)furo[2,3-d]pyrimidine-5-carboxamide], the IC50 was 100 to 1000 nM.

Take `Cc1oc2ncnc(NC3(C)CC3)c2c1C(=O)NC1(C#N)CCC1` [Example 91, N-(1-Cyanocyclobutyl)-6-methyl-4-[(1-methylcyclopropyl)amino]furo[2,3-d]pyrimidine-5-carboxamide]: the IC50 was 10 to 100 nM.

As for `Cc1oc2ncnc(NC3(C)CC3)c2c1C(=O)NCc1ccon1` [Example 92, 6-Methyl-4-[(1-methylcyclopropyl)amino]-N-(1,2-oxazol-3-ylmethyl)furo[2,3-d]pyrimidine-5-carboxamide], the IC50 was 10 to 100 nM. On the same count and under the same terms, the same measure for `Cc1oc2ncnc(NC3(C)CC3)c2c1C(=O)NCC1(C)COC1` [Example 93, 6-Methyl-4-[(1-methylcyclopropyl)amino]-N-[(3-methyloxetan-3-yl)methyl]furo[2,3-d]pyrimidine-5-carboxamide]: 10 to 100 nM.

Take `Cc1oc2ncnc(NC3(C)CC3)c2c1C(=O)NCC1(F)COC1` [Example 94, N-[(3-Fluorooxetan-3-yl)methyl]-6-methyl-4-[(1-methylcyclopropyl)amino]furo[2,3-d]pyrimidine-5-carboxamide]: the IC50 was 100 to 1000 nM.
